Where “and” joins values, the source holds several entries; their conditions need not be identical. Identical values can stand only once. Like-named read-outs stand apart in the source and are kept apart here.
What was measured:
[1] = test system: Staphylococcus aureus; conditions: cited from earlier work
[2] = test system: Bacillus subtilis; conditions: cited from earlier work
[3] = test system: Escherichia coli; conditions: cited from earlier work
[4] = test system: Salmonella typhi; design: method as in PMID 16740311; conditions: cited from earlier work
[5] = test system: Aspergillus niger; design: method as in PMID 16740311; conditions: cited from earlier work
[6] = test system: Salmonella typhi; experiment: Agar diffusion, inhibition zone (ZOI) and activity index; assay type: cell-based; conditions: Salmonella typhi
[7] = test system: Salmonella typhi; experiment: MIC / MBC determination; assay type: cell-based; conditions: Salmonella typhi
[8] = test system: lipoprotein lipase (L. lipase); experiment: Serum L. lipase activity in high-fat diet mice (fluorometric kit); assay type: in vivo; conditions: HFD C57BL/6 mice; for L. lipase (serum enzyme activity): 4 mg kg^−1 body weight in DMF, 3 months, mean ± SD
Experimental: (§1) This study employed 8‐week‐old male C57BL/6 mice of matched weight (around 20–25 g) from an inbred “genetically identical” strain. The mice were purchased from the National Research Center's Animal House. Then, they were subdivided into five groups, each group containing eight mice; four groups were treated with CETZ.2HCl (antihistamine drug) and its metal complexes, whereas one group was left untreated and classified as a control group. Animals were housed in modular plastic veterinary cages at air‐conditioned room, under pathogen‐free conditions. Mice were fed HFD, which consisted of carbs 42.0%, fat 23.0%, protein 17.0%, fiber 3.0%, minerals 5.0%, and moisture 10.0% for 3 months, together with administration of either CETZ.2HCl or its metal complexes (4 mg kg ^−1 body weight) in DMF [37]. Experiments were performed in accordance with the regulations of the Animal Care and Use Committee of the College of Veterinary Medicine, Mansoura University (MU‐ACUC), Egypt; MU‐ACUC (PHARM.R.24.02.30), complied with “Guide for the Care and Use of Laboratory Animals” (National Research Council publication 8th ed., USA, 2011).
(§2) Specimens of blood were gathered from the retro‐orbital sinus, under halothane (1.5 percent v/v halothane in oxygen) anesthesia via inhalation. The collected blood was allowed to clot, by centrifugation at 1600 rpm for 20 min, to obtain serum. Isolated sera were maintained at −80°C until tests of liver function in addition to lipid profiles were performed. For estimation of L. lipase activity, fluorometric L. lipase activity assay kit was utilized following the manufacturer's protocol (Cat. No. STA‐610, Cell BIOLABS INC., San Diego, USA). Serum T. chol. LDL, HDL, TG, ALT (alanine aminotransferase), AST (aspartate aminotransferase), and ALP (alkaline phosphatase) were examined with Roche kits using COBAS Integra 400 and COBAS Integra‐400 plus (Roche Diagnostics Limited, Switzerland).

[9] = Serum lipid profile in high-fat diet mice; assay type: in vivo; conditions: HFD C57BL/6 mice, 4 mg kg^−1 body weight, 3 months, mean ± SD
Experimental: as §1, §2

[10] = Serum liver function enzymes in high-fat diet mice; assay type: in vivo; conditions: HFD C57BL/6 mice, 4 mg kg^−1 body weight, 3 months, mean ± SD
Experimental: as §1, §2

[11] = test system: Aspergillus niger; experiment: MIC determination
[12] = test system: Aspergillus terreus; experiment: MIC determination
[13] = test system: Staphylococcus aureus; experiment: MIC / MBC determination
[14] = test system: Bacillus subtilis; experiment: MIC / MBC determination
[15] = test system: Escherichia coli; experiment: MIC / MBC determination
[16] = test system: Staphylococcus aureus; experiment: Agar diffusion, inhibition zone (ZOI) and activity index; conditions: Staphylococcus aureus
[17] = test system: Bacillus subtilis; experiment: as above; conditions: Bacillus subtilis
[18] = test system: Escherichia coli; experiment: as above; conditions: Escherichia coli
[19] = test system: Aspergillus niger; experiment: as above; conditions: Aspergillus niger
[20] = test system: Aspergillus terreus; experiment: as above
[21] = Table 9, preceding research ref [68]
[22] = 10^−3 M in DMF, 5 mm holes, 20 h at 37°C
[23] = ZOI of compound / ZOI of standard (gentamicin) × 100
[24] = ZOI of compound / ZOI of standard (ampicillin) × 100
[25] = 10^−3 M in DMF, 5 mm holes, 7 days at 30°C
[26] = ZOI of compound / ZOI of standard (colitrimazole) × 100

## O.O.O=C([O-])COCCN1CCN(C(c2ccccc2)c2ccc(Cl)cc2)CC1.O=[N+]([O-])[O-].[Cu+2].c1ccc(-c2ccccn2)nc1 (centres unmarked) [[(Cu(CETZ)(Bipy)(H2O)2(NO3)]]
[1]; Table 9, Staphylococcus aureus ref [68]
  AI: 105.7
[1]; [21]
  Staphylococcus aureus (inhibition zone): 24 ^+ ^3 ± 0.13
[2]; Table 9, Bacillus subtillis ref [68]
  AI: 55.3
[2]; [21]
  Bacillus subtillis (inhibition zone): 15.7 ^+ ^1 ± 0.001
[3]; Table 9, Escherichia coli ref [68]
  AI: 113.3
[3]; [21]
  Escherichia coli (inhibition zone): 22.1 ^+ ^2 ± 0.005
[4]; Table 9, Salmonella typhi ref [68]
  AI: 59.9
[4]; [21]
  Salmonella typhi (inhibition zone): 12.4 ^+ ^1 ± 0.22
[5]; Table 9, Aspergillus niger ref [68]
  AI: 88.89
[5]; [21]
  Aspergillus niger (inhibition zone): 17.6 ^+ ^1 ± 0.11

## [Zn(CETZ)(Phen)(H2O)2Cl] [complex (2)]
[6]; [22]
  ZOI: 18.0 ^+ ^2 ±0.17 mm
[6]; [23]
  AI: 86.9%
[7]
  MBC: 0.065 ± 0.014 µg/mL
  MIC: 0.050 µg/mL and 0.050 ± 0.007 µg/mL
[8]
  L. lipase (serum enzyme activity): 108.88 U/L
[8]; listed as Zn-CETZ Complex
  L. lipase (serum enzyme activity): 108.88±20.0 U/L
[8]; rounded, 4 mg kg^−1 body weight
  mean L. lipase activity: 108.9 U L^−1
[9]
  HDL: 115.75 ± 13.32 mg/dL
  LDL: 71.63 ± 6.5 mg/dL
  Total Chol.: 155.5 ± 16.01 mg/dL
  Trig: 70.63 ± 6.05 mg/dL
[10]
  ALP: 49.63 ± 6.16 U L^−1
  ALT: 164.87 ± 35.27 U L^−1
  AST: 156.5 ± 16.12 U L^−1
[11]
  MIC: 0.025 µg/mL and 0.025 ± 0.01 µg/mL
[12]
  MIC: 0.050 µg/mL and 0.050 ± 0.02 µg/mL
[13]
  MBC: 0.057 µg/mL and 0.057 ± 0.002 µg/mL
  MIC: 0.050 µg/mL and 0.050 ± 0.007 µg/mL
[14]
  MIC: 0.050 ± 0.01 µg/mL
[15]
  MBC: 0.063 ± 0.015 µg/mL
  MIC: 0.050 µg/mL and 0.050 ± 0.02 µg/mL
[16]; [22]
  ZOI: 15.2 ^+ ^1 ±0.74 mm
[16]; [24]
  AI: 66.9%
[17]; [22]
  ZOI: 21.2 ^+ ^2 ±1.04 mm
[17]; [24]
  AI: 74.65%
[18]; [22]
  ZOI: 7.9^NS ±0.34 mm
[18]; [23]
  AI: 40.5%
[19]; [25]
  ZOI: 17.6 ^+ ^1 ±0.43 mm
[19]; [26]
  AI: 88.88%
[20]; [25]
  ZOI: 12.0^NS ±1.71 mm
[20]; [26]
  AI: 68.57%
